How the values were obtained:
rat [1] = settings: Multigenerational reproductive toxicity study; sprague dawley; Oral; Gavage/Intubation; dose end: 17 GD; group: parental; systemic / in life observation / body weight / body weight + systemic / in life observation / food consumption / food consumption + systemic…
rat [2] = settings: Sub-acute repeat dose toxicity, sprague dawley, Oral, Gavage/Intubation, dose end: 1 month, group: systemic
mouse [3] = settings: Subchronic oral toxicity in rodents, other, Feed, dose end: 13 week, group: systemic
rat [4] = settings: Combined chronic toxicity/carcinogenicity, wistar, Oral, Feed, dose end: 104 week, group: systemic
rat [5] = settings: Subchronic oral toxicity in rodents, wistar, Feed, dose end: 13 week, group: systemic
rabbit [6] = settings: Prenatal developmental toxicity study, new zealand white, Oral, Gavage/Intubation, dose end: 19 GD
rat [7] = settings: Combined chronic toxicity/carcinogenicity, sprague dawley, Oral, Feed, dose end: 2 year, group: systemic
rat [8] = settings: Multigenerational reproductive toxicity study, sprague dawley, Oral, [Not Specified], dose end: 2 generation
mouse [9] = settings: Combined chronic toxicity/carcinogenicity, b6c3f1, Oral, Feed, dose end: 2 year, group: systemic
rabbit [10] = settings: Prenatal developmental toxicity study, new zealand white, Oral, Gavage/Intubation, dose end: 19 GD; remark: listed apart in the source
mouse [11] = settings: Carcinogenicity, cd1, Oral, [Not Specified], dose end: 99 week, group: systemic
rat [12] = settings: Subchronic oral toxicity in rodents, sprague dawley, Feed, dose end: 13 week, group: systemic
rat [13] = settings: Prenatal developmental toxicity study, other, Oral, Gavage/Intubation, dose end: 15 GD
rat [14] = settings: Combined chronic toxicity/carcinogenicity, sprague dawley, Oral, Feed, dose end: 25 month, group: systemic
rat [15] = settings: Subchronic oral toxicity in rodents, wistar, Feed, dose end: 6 week, group: systemic
[16] = systemic / clinical chemistry / cholesterol / cholesterol + systemic / organ weight / liver / absolute + systemic / organ weight / liver / …
[17] = systemic / pathology microscopic / liver / arteritis + systemic / pathology microscopic / liver / degeneration
[18] = systemic / clinical chemistry / urea nitrogen / urea nitrogen
[19] = systemic / clinical chemistry / urea nitrogen / urea nitrogen + systemic / clinical chemistry / alanine aminotransferase (alt/sgpt) / …
[20] = systemic / hematology / erythrocyte (rbc) count differential / erythrocyte (rbc) + systemic / hematology / hematocrit (hct) / hematocrit (…
[21] = systemic / in life observation / body weight / body weight gain
[22] = systemic / in life observation / body weight / body weight gain + systemic / clinical chemistry / cholesterol / cholesterol
[23] = group: developmental, developmental / developmental malformation / brain / hydrocephaly
[24] = group: maternal, reproductive / reproductive performance / postimplantation loss / postimplantation loss
[25] = group: maternal, reproductive / reproductive performance / postimplantation loss / postimplantation loss + reproductive / reproductive performance / aborted…
[26] = systemic / pathology microscopic / liver / hyperplasia
[27] = systemic / pathology microscopic / liver / hyperplasia + systemic / in life observation / body weight / body weight + systemic / pathology …
[28] = group: offspring, developmental / offspring survival late / viability index / viability index + systemic / in life observation / body weight / offspring (pup…
[29] = group: parental, systemic / in life observation / body weight / body weight + systemic / in life observation / body weight / body weight gain + systemic / …
[30] = systemic / in life observation / mortality / mortality + systemic / in life observation / body weight / body weight
[31] = group: developmental, developmental / developmental malformation / brain / dilated cerebral ventricle + developmental / developmental malformation / brain / …
[32] = group: maternal, systemic / in life observation / body weight / body weight + systemic / in life observation / body weight / body weight gain + reproductive…
[33] = systemic / in life observation / body weight / body weight gain + systemic / in life observation / mortality / mortality + systemic / organ …
[34] = systemic / clinical chemistry / albumin / albumin + systemic / clinical chemistry / protein / protein
[35] = systemic / clinical chemistry / cholesterol / cholesterol + systemic / in life observation / body weight / body weight + systemic / in life …
[36] = group: developmental, developmental / developmental malformation / eye / anophthalmia + developmental / developmental malformation / eye / microphthalmia
[37] = group: maternal, systemic / in life observation / body weight / body weight gain
[38] = systemic / clinical chemistry / alanine aminotransferase (alt/sgpt) / alanine aminotransferase (alt/sgpt) + systemic / clinical chemistry / …
[39] = systemic / pathology microscopic / liver / hypertrophy
[40] = systemic / in life observation / body weight / body weight gain + systemic / clinical chemistry / protein / protein + systemic / clinical …

NC(=O)N(O)[C@@H]1COc2cc(OCc3ccccc3)ccc21
LEL (rat [1]): 1000 mg/kg/day | LOAEL (rat [1]): > 1000 mg/kg/day | NEL (rat [1]): 100 mg/kg/day | NOAEL (rat [1]): ≥ 1000 mg/kg/day | LOAEL (rat [2]; [16]): > 1000 mg/kg/day | NOAEL (rat [2]; [16]): ≥ 1000 mg/kg/day | LEL (rat [2]; [17]): 100 mg/kg/day | NEL (rat [2]; [17]): < 100 mg/kg/day

C[N+](C)(C)CCO.O=c1ccc([O-])n[nH]1
LEL (mouse [3]; [18]): 5620 mg/kg/day | LOAEL (mouse [3]; [18]): 5620 mg/kg/day | NEL (mouse [3]; [19]): 1100 mg/kg/day | NOAEL (mouse [3]; [19]): 1100 mg/kg/day | LEL (rat [4]; [20]): 18.1 mg/kg/day | NEL (rat [4]; [20]): < 18.1 mg/kg/day | LOAEL (rat [4]; systemic / in life observation / body weight / body weight + systemic / in life observation / body weight / body weight gain): 1960 mg/kg/day | NOAEL (rat [4]; systemic / in life observation / body weight / body weight + systemic / in life observation / body weight / body weight gain + systemic / …): 183 mg/kg/day | LOAEL (rat [5]; [21]): 4760 mg/kg/day | LEL (rat [5]; [22]): 4760 mg/kg/day | NEL (rat [5]; [22]): 1060 mg/kg/day | NOAEL (rat [5]; [22]): 1060 mg/kg/day

C1CC[CH]([Sn+]([CH]2CCCCC2)[CH]2CCCCC2)CC1.[OH-] [Cyhexatin]
LEL (rabbit [6]; [23]): 3 mg/kg/day | LOAEL (rabbit [6]; [23]): > 3 mg/kg/day | NEL (rabbit [6]; [23]): 1 mg/kg/day | NOAEL (rabbit [6]; [23]): ≥ 3 mg/kg/day | LEL (rabbit [6]; [24]): 1 mg/kg/day | LOAEL (rabbit [6]; [24]): 1 mg/kg/day | NEL (rabbit [6]; [25]): 0.5 mg/kg/day | NOAEL (rabbit [6]; [25]): 0.5 mg/kg/day | LOAEL (rat [7]; [26]): 1 mg/kg/day | NOAEL (rat [7]; [26]): < 1 mg/kg/day | LEL (rat [7]; [27]): 1 mg/kg/day | NEL (rat [7]; [27]): < 1 mg/kg/day | LEL (rat [8]; [28]): 6 mg/kg/day | LOAEL (rat [8]; [28]): > 6 mg/kg/day | NEL (rat [8]; [28]): 0.5 mg/kg/day | NOAEL (rat [8]; [28]): ≥ 6 mg/kg/day | LEL (rat [8]; group: parental, systemic / in life observation / body weight / body weight + systemic / in life observation / body weight / body weight gain): 0.5 mg/kg/day | LOAEL (rat [8]; [29]): > 6 mg/kg/day | NEL (rat [8]; [29]): 0.1 mg/kg/day | NOAEL (rat [8]; [29]): ≥ 6 mg/kg/day | LOAEL (mouse [9]; systemic / in life observation / mortality / mortality): 6 mg/kg/day | LEL (mouse [9]; [30]): 6 mg/kg/day | NEL (mouse [9]; [30]): 3 mg/kg/day | NOAEL (mouse [9]; [30]): 3 mg/kg/day | LEL (rabbit [10]; [31]): 0.75 mg/kg/day | LOAEL (rabbit [10]; [31]): > 3 mg/kg/day | NEL (rabbit [10]; [31]): < 0.75 mg/kg/day | NOAEL (rabbit [10]; [31]): ≥ 3 mg/kg/day | LOAEL (rabbit [10]; group: maternal, systemic / in life observation / body weight / body weight + systemic / in life observation / body weight / body weight gain): 3 mg/kg/day | LEL (rabbit [10]; [32]): 3 mg/kg/day | NEL (rabbit [10]; [32]): 0.75 mg/kg/day | NOAEL (rabbit [10]; [32]): 0.75 mg/kg/day

CCCN(CCC)c1c([N+](=O)[O-])cc(C(F)(F)F)c(N)c1[N+](=O)[O-] [Prodiamine]
LOAEL (mouse [11]; [33]): 750 mg/kg/day | NEL (mouse [11]; [33]): 7.5 mg/kg/day | NOAEL (mouse [11]; [33]): 75 mg/kg/day | LEL (mouse [11]; systemic / in life observation / body weight / body weight gain + systemic / organ weight / kidney / nos + systemic / in life observation / …): 75 mg/kg/day | LEL (rat [12]; [34]): 26.7 mg/kg/day | NEL (rat [12]; [34]): < 26.7 mg/kg/day | LOAEL (rat [12]; [35]): 269 mg/kg/day | NOAEL (rat [12]; [35]): 80.1 mg/kg/day | LEL (rat [13]; [36]): 100 mg/kg/day | LOAEL (rat [13]; [36]): 100 mg/kg/day | NEL (rat [13]; [36]): < 100 mg/kg/day | NOAEL (rat [13]; [36]): < 100 mg/kg/day | LEL (rat [13]; [37]): 1000 mg/kg/day | LOAEL (rat [13]; [37]): 1000 mg/kg/day | NEL (rat [13]; [37]): 300 mg/kg/day | NOAEL (rat [13]; [37]): 300 mg/kg/day | LOAEL (rat [14]; [38]): 37 mg/kg/day | NOAEL (rat [14]; [38]): 9.1 mg/kg/day | LEL (rat [14]; [39]): 1.8 mg/kg/day | NEL (rat [14]; [39]): < 1.8 mg/kg/day | LEL (rat [15]; systemic / clinical chemistry / protein / protein): 63 mg/kg/day | LOAEL (rat [15]; [21]): 681 mg/kg/day | NEL (rat [15]; [40]): 16.8 mg/kg/day | NOAEL (rat [15]; [40]): 63 mg/kg/day

Source: EPA's ToxRefDB 2
